Tests used:
breast cancer cell lines = settings: various breast cancer cell lines; cited from earlier work
human PBMC cells = assay: TNF-α release by human PBMC cells after 16 h co-incubation, supernatants analysed by ELISA; format: cell-based; settings: FIG. 6, 10 μg/ml RNA oligonucleotides
Description: In order to determine the immunogenic activity of adjuvants according to the invention, such adjuvants in the form of a lipid-modified nucleic acid containing a sequence according to SEQ ID NO: 40, 41 or 42 were co-incubated with human cells. To this end, human PBMC cells, for example, containing RNA were co-incubated for 16 hours in X-vivo15 medium (BioWhittaker), enriched with 2 mM L-glutamine (BioWhittaker), 10 U/ml penicillin (BioWhittaker) and 10 μg/ml streptomycin, with 10 μg/ml of RNA (mRNA coding for β-galactosidase or phosphorothioate RNA oligonucleotide 40 5′ […] (SEQ ID NO: 40)) and optionally with 10 μg/ml protamine. The supernatants were removed and analysed by means of ELISA. […] When determining the TNFα release, a marked stimulation of the immune system can be detected, which is at least equal to that of β-galactosidase or RNA (see FIG. 5B).
In a further experiment, the release of TNF-α by human PBMC cells was determined after stimulation with RNA oligonucleotides used according to the invention and also adjuvants according to the invention.
To that end, human PBMC cells were co-incubated for 16 hours with 10 μg/ml of RNA oligonucleotides in X-vivo15 medium (BioWhittaker), enriched with 2 mM L-glutamine (BioWhittaker), 10 U/ml penicillin (BioWhittaker) and 10 μg/ml streptomycin. […] The supernatants were removed and analysed by means of ELISA. […]

Compound | apoptosis (breast cancer cell lines) | increase in immune stimulation (TNF-α release) as compared with the unmodified RNA oligonucleotide (human PBMC cells)
Cc1c(C)c2c(c(C)c1OC(=O)CCC(=O)O)CC[C@@](C)(CCC[C@H](C)CCC[C@H](C)CCCC(C)C)O2 [VES, vitamin E succinate] | induce apoptosis | –
RNA oligo Toc CV2: tocopherol-modified sequence according to SEQ ID NO: 42 (5′-AAUGGAUAUGGAAUAUGGAA-3′, RNA CV2) (RNA, backbone not given here; tocopherol lipid conjugated) | – | more than 10 fold

Source: US20070280929A1, “ADJUVANT IN THE FORM OF A LIPID-MODIFIED NUCLEIC ACID” (priority 2006, published 2007)
